Laboratory results published in patent US20230295260A1, “GLP RECEPTOR AGONISTS” (HEPTARES THERAPEUTICS LIMITED, priority 2020, published 2023).
Non-standard residues stand in square brackets, D forms with d. Residues, ends and D or L forms follow the SMILES beside them. ξ: configuration not given here. *: point of attachment. Malonyl(2,2-Me2,histaminyl) = CC(C)(C(=O)NCCc1cnc[nH]1)C(=O)*; Ala(1H-tetrazol-5-yl) = N[C@@H](Cc1nnn[nH]1)C(=O)O; αMeL = CC(C)C[C@](C)(N)C(=O)O; ξαMeD = CC(N)(CC(=O)O)C(=O)O; Nle = CCCC[C@H](N)C(=O)O; Aib = CC(C)(N)C(=O)O; Alloc = C=CCOC(=O)*

What was measured:
human GLP1 receptor = molecular target: T1, human GLP1 receptor (Homo sapiens, UniProt P43220); assay: cAMP accumulation assay (HTRF), functional agonism of human GLP1 receptor in HEK cells; assay type: cell-based; details: HEK cells, human GLP1 receptor BacMam, 45 min 37° C.; for Emax: HEK293, read-out: Human GLP-1R agonist cAMP Emax; for EC50: read-out: Human GLP-1R agonist cAMP pEC50 (converted)
T1 construct: expressed in transfected cells; host or cells: HEK cells, BacMam virus transduction
Description: The functional activity of the peptides were assessed using a HTRF cAMP assay. pEC50 values are quoted.
cAMP production upon agonist stimulation of human GLP2 or GLP1 receptor was assessed utilizing HiRange cAMP kit (Cisbio). In brief, HEK cells were infected with either human GLP2 or GLP1 receptor BacMam virus for 24 hours and frozen for later use in the assay. […] Cells were prepared in the assay buffer (HBSS (Lonza) supplemented with 0.5 mM IBMX (Tocris)). After 45 min incubation at 37° C., the reaction was stopped by addition of the HTRF detection reagents in the lysis buffer provided in the kit.

mouse GLP1 receptor = molecular target: T2, mouse GLP1 receptor (Mus musculus, UniProt O35659); assay: cAMP accumulation assay (HTRF), functional agonism of mouse GLP1 receptor in HEK cells; assay type: cell-based; details: HEK cells transiently transfected, 45 min 37° C.; for Emax: HEK293, read-out: Mouse GLP-1 R agonist cAMP Emax; for EC50: read-out: Mouse GLP-1 R agonist cAMP pEC50 (converted)
T2 construct: expressed in transfected cells; host or cells: HEK cells, transient transfection with GeneJuice
T2 sequence (O35659 22-463): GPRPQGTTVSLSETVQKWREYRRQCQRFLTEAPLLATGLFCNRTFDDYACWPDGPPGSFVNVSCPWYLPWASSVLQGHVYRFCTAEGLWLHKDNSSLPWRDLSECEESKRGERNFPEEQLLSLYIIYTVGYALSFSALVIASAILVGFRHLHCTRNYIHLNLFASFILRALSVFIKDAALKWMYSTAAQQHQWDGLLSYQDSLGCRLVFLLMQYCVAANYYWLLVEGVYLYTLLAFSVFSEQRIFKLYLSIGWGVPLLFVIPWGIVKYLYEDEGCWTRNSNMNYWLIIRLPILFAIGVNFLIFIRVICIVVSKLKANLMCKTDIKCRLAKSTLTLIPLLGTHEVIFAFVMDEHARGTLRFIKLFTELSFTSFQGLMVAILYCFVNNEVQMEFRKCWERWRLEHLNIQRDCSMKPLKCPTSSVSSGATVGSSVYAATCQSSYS

mouse GLP2 receptor = molecular target: T3, mouse GLP2 receptor (Mus musculus, UniProt Q5IXF8); assay: cAMP accumulation assay (HTRF), functional agonism of mouse GLP2 receptor in HEK cells; assay type: cell-based; details: HEK cells transiently transfected, 45 min 37° C.; for Emax: HEK293, read-out: Mouse GLP-2R agonist cAMP Emax; for EC50: read-out: Mouse GLP-2R agonist cAMP pEC50 (converted)
T3 construct: expressed in transfected cells; host or cells: HEK cells, transient transfection with GeneJuice
T3 sequence (Q5IXF8 1-512): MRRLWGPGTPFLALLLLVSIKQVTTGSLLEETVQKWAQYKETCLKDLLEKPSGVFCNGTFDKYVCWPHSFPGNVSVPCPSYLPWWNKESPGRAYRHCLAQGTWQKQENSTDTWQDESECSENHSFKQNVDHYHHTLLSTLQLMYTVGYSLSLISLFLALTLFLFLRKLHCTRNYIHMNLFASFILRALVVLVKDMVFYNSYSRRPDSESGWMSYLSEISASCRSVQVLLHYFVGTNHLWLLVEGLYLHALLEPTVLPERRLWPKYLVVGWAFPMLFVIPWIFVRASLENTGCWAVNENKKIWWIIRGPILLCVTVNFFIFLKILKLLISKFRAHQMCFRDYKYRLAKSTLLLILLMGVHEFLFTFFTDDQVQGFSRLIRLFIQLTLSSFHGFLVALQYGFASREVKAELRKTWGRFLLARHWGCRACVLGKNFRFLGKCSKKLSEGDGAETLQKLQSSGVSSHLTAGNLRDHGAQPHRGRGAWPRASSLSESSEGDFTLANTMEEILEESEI

human GLP2 receptor = molecular target: T4, human GLP2 receptor (Homo sapiens, UniProt O95838); assay: cAMP accumulation assay (HTRF), functional agonism of human GLP2 receptor in HEK cells; details: for Emax: HEK293, read-out: Human GLP-2R agonist cAMP Emax;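 as to all read-outs here: HEK cells transduced via BacMam to express human GLP2 receptor, agonist-stimulated cAMP measured by HTRF after 45 min at 37 °C in HBSS with 0.5 mM IBMX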
T4 sequence (O95838 1-553): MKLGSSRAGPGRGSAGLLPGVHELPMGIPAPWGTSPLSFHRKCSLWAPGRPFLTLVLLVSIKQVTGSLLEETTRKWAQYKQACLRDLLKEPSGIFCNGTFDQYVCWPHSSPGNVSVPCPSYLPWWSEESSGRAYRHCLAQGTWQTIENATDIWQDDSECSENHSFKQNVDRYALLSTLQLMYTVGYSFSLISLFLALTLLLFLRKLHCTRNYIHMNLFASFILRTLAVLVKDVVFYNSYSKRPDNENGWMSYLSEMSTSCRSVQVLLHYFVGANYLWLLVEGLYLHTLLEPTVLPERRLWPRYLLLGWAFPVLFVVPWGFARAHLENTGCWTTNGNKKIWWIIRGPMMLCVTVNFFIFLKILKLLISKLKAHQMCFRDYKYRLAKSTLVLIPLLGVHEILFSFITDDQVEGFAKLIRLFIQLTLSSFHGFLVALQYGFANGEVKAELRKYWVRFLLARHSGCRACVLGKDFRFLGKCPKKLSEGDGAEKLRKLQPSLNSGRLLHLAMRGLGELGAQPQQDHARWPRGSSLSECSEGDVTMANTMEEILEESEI

T1 sequence (P43220 24-463): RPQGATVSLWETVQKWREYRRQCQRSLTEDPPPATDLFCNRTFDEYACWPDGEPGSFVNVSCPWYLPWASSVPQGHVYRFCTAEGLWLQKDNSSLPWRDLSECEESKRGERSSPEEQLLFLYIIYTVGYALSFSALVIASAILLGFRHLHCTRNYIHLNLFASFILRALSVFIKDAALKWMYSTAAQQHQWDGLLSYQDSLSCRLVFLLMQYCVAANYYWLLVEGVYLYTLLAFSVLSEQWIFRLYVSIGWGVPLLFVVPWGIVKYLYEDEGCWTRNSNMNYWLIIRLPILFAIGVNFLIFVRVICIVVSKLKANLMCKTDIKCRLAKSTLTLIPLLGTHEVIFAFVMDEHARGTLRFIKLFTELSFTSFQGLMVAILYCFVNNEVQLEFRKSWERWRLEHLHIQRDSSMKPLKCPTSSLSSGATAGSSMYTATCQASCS

Row | Compound | Emax (human GLP1 receptor) | EC50 (human GLP1 receptor) | Emax (mouse GLP1 receptor) | EC50 (mouse GLP1 receptor) | Emax (mouse GLP2 receptor) | EC50 (mouse GLP2 receptor) | EC50 (human GLP2 receptor) | Emax (human GLP2 receptor)
1 | C=CCOC(=O)NCCCC[C@H](NC(=O)[C@H](CC(C)C)NC(=O)[C@H](CC(=O)O)NC(=O)[C@H](CC(C)C)NC(=O)[C@@H](NC(=O)[C@@H](NC(=O)[C@@H](Cc1ccccc1)NC(=O)[C@H](CCCC)NC(=O)[C@H](CCC(=O)O)NC(=O)[C@H](CC(=O)O)NC(=O)[C@H](CO)NC(=O)[C@H](Cc1ccccc1)NC(=O)[C@H](CO)NC(=O)CNC(=O)[C@H](Cc1nn[nH]n1)NC(=O)C(C)(C)C(=O)NCCc1c[nH]cn1)[C@@H](C)O)[C@@H](C)CC)C(=O)N[C@@H](C)C(=O)N[C@@H](C)C(=O)N[C@@H](CCCCN)C(=O)N[C@@H](CC(=O)O)C(=O)N[C@@H](Cc1ccccc1)C(=O)N[C@H](C(=O)N[C@@H](CC(N)=O)C(=O)N[C@@H](Cc1c[nH]c2ccccc12)C(=O)N[C@@H](CC(C)C)C(=O)N[C@H](C(=O)N[C@@H](CCC(N)=O)C(=O)N[C@H](C(=O)N[C@@H](CCCCN)C(=O)N[C@@](C)(CC(C)C)C(=O)N[C@H](C(=O)N[C@@H](CC(=O)O)C(N)=O)[C@@H](C)O)[C@@H](C)O)[C@@H](C)CC)[C@@H](C)CC [Example 13] ({Malonyl(2,2-Me2,histaminyl)}-[Ala(1H-tetrazol-5-yl)]GSFSDE[Nle][dF]TILDLK(Alloc)AAKDFINWLIQTK[αMeL]TD-NH2) | 93.4% | 2.51 nM | 92.3% | 3.16 nM | 101% | 3.98 nM | 0.00794 nM | 100%
2 | C=CCOC(=O)NCCCC[C@H](NC(=O)[C@H](C)NC(=O)[C@H](C)NC(=O)[C@H](CCCCNC(=O)OCC=C)NC(=O)[C@H](CC(C)C)NC(=O)[C@H](CC(=O)O)NC(=O)[C@H](CC(C)C)NC(=O)C(C)(C)NC(=O)[C@@H](NC(=O)[C@@H](Cc1ccccc1)NC(=O)[C@H](CCCC)NC(=O)[C@H](CCC(=O)O)NC(=O)[C@H](CC(=O)O)NC(=O)[C@H](CO)NC(=O)[C@H](Cc1ccccc1)NC(=O)[C@H](CO)NC(=O)CNC(=O)[C@H](Cc1nn[nH]n1)NC(=O)C(C)(C)C(=O)NCCc1c[nH]cn1)[C@@H](C)O)C(=O)N[C@@H](CC(=O)O)C(=O)N[C@@H](Cc1ccccc1)C(=O)N[C@H](C(=O)N[C@@H](CC(N)=O)C(=O)N[C@@H](Cc1c[nH]c2ccccc12)C(=O)N[C@@H](CC(C)C)C(=O)N[C@H](C(=O)N[C@@H](CCC(N)=O)C(=O)N[C@H](C(=O)N[C@@H](CCCCN)C(=O)N[C@H](C(=O)N[C@H](C(=O)N[C@@H](CC(=O)O)C(N)=O)[C@@H](C)O)[C@@H](C)CC)[C@@H](C)O)[C@@H](C)CC)[C@@H](C)CC [Example 15] ({Malonyl(2,2-Me2,histaminyl)}-[Ala(1H-tetrazol-5-yl)]GSFSDE[Nle][dF]T[Aib]LDLK(Alloc)AAK(Alloc)DFINWLIQTKITD-NH2) | 95.1% | 5.01 nM | 94.4% | 1.58 nM | 99.9% | 1.58 nM | 0.00794 nM | 101%
3 | C=CCOC(=O)NCCCC[C@H](NC(=O)[C@H](CC(C)C)NC(=O)[C@H](CC(=O)O)NC(=O)[C@H](CC(C)C)NC(=O)C(C)(C)NC(=O)[C@@H](NC(=O)[C@@H](Cc1ccccc1)NC(=O)[C@H](CCCC)NC(=O)[C@H](CCC(=O)O)NC(=O)[C@H](CC(=O)O)NC(=O)[C@H](CO)NC(=O)[C@H](Cc1ccccc1)NC(=O)[C@H](CO)NC(=O)CNC(=O)[C@H](Cc1nn[nH]n1)NC(=O)C(C)(C)C(=O)NCCc1c[nH]cn1)[C@@H](C)O)C(=O)N[C@@H](C)C(=O)N[C@@H](C)C(=O)N[C@@H](CCCCN)C(=O)N[C@@H](CC(=O)O)C(=O)N[C@@H](Cc1ccccc1)C(=O)N[C@H](C(=O)N[C@@H](CC(N)=O)C(=O)N[C@@H](Cc1c[nH]c2ccccc12)C(=O)N[C@@H](CC(C)C)C(=O)N[C@H](C(=O)N[C@@H](CCC(N)=O)C(=O)N[C@H](C(=O)N[C@@H](CCCCN)C(=O)N[C@H](C(=O)N[C@H](C(=O)N[C@@H](CC(=O)O)C(N)=O)[C@@H](C)O)[C@@H](C)CC)[C@@H](C)O)[C@@H](C)CC)[C@@H](C)CC [Example 17] ({Malonyl(2,2-Me2,histaminyl)}-[Ala(1H-tetrazol-5-yl)]GSFSDE[Nle][dF]T[Aib]LDLK(Alloc)AAKDFINWLIQTKITD-NH2) | 93.7% | 0.794 nM | 94.9% | 0.631 nM | 100% | 0.794 nM | 0.00501 nM | 101%
4 | C=CCOC(=O)NCCCC[C@H](NC(=O)[C@H](CC(C)C)NC(=O)[C@H](CC(=O)O)NC(=O)[C@H](CC(C)C)NC(=O)[C@@H](NC(=O)[C@@H](NC(=O)[C@@H](Cc1ccccc1)NC(=O)[C@H](CCCC)NC(=O)[C@H](CCC(=O)O)NC(=O)[C@H](CC(=O)O)NC(=O)[C@H](CO)NC(=O)[C@H](Cc1ccccc1)NC(=O)[C@H](CO)NC(=O)CNC(=O)[C@H](Cc1nn[nH]n1)NC(=O)C(C)(C)C(=O)NCCc1c[nH]cn1)[C@@H](C)O)[C@@H](C)CC)C(=O)N[C@@H](C)C(=O)N[C@@H](C)C(=O)N[C@@H](CCCCN)C(=O)N[C@@H](CC(=O)O)C(=O)N[C@@H](Cc1ccccc1)C(=O)N[C@H](C(=O)N[C@@H](CC(N)=O)C(=O)N[C@@H](Cc1c[nH]c2ccccc12)C(=O)N[C@@H](CC(C)C)C(=O)N[C@H](C(=O)N[C@@H](CCC(N)=O)C(=O)N[C@H](C(=O)N[C@@H](CCCCN)C(=O)N[C@H](C(=O)N[C@H](C(=O)NC(C)(CC(=O)O)C(N)=O)[C@@H](C)O)[C@@H](C)CC)[C@@H](C)O)[C@@H](C)CC)[C@@H](C)CC (stereo partly drawn) [Example 20] ({Malonyl(2,2-Me2,histaminyl)}-[Ala(1H-tetrazol-5-yl)]GSFSDE[Nle][dF]TILDLK(Alloc)AAKDFINWLIQTKIT[ξαMeD]-NH2; C-terminus assumed) | 94% |  | 92.2% |  | 100% |  |  | 103%
5 | CCCC[C@H](NC(=O)[C@H](CCC(=O)O)NC(=O)[C@H](CC(=O)O)NC(=O)[C@H](CO)NC(=O)[C@H](Cc1ccccc1)NC(=O)[C@H](CO)NC(=O)CNC(=O)[C@H](CC(=O)O)NC(=O)CNC(=O)[C@@H](N)Cc1cnc[nH]1)C(=O)N[C@H](Cc1ccccc1)C(=O)N[C@H](C(=O)N[C@H](C(=O)N[C@@H](CC(C)C)C(=O)N[C@@H](CC(=O)O)C(=O)N[C@@H](CC(C)C)C(=O)N[C@@H](CC(C)C)C(=O)N[C@@H](C)C(=O)N[C@@H](C)C(=O)N[C@@H](CCCNC(=N)N)C(=O)N[C@@H](CC(=O)O)C(=O)N[C@@H](Cc1ccccc1)C(=O)N[C@H](C(=O)N[C@@H](CC(N)=O)C(=O)N[C@@H](Cc1c[nH]c2ccccc12)C(=O)N[C@@H](CC(C)C)C(=O)N[C@H](C(=O)N[C@@H](CCC(N)=O)C(=O)N[C@H](C(=O)N[C@@H](CCCCN)C(=O)N[C@H](C(=O)N[C@H](C(=O)N[C@@H](CC(=O)O)C(N)=O)[C@@H](C)O)[C@@H](C)CC)[C@@H](C)O)[C@@H](C)CC)[C@@H](C)CC)[C@@H](C)CC)[C@@H](C)O [FE-203799, reference compound] (H-HGDGSFSDE[Nle][dF]TILDLLAARDFINWLIQTKITD-NH2) | 61.4% | 158 nM | 53.4% | > 50.1 nM | 98.1% | 0.0316 nM | 0.0158 nM | 101%
